Laboratory results as given in US20110263510A1, “Methods of Inhibiting Cell Death or Inflammation in a Mammal” (priority 2006, published 2011).
Ends that are not written are not given here. Peptide text beside a SMILES is read from it. * marks the point of attachment. Cbz = O=C(OCc1ccccc1)*; CH2F = FC*

Experiments:
[1] = test system: skeletal muscle ischemia-reperfusion injury; conditions: Iwata et al., Blood 100:2077, 2002; cited from earlier work
[2] = test system: hind-limbs of C57BL/6 mice, ischemia-reperfusion injury; experiment: hind-limb tourniquet ischemia (90 minutes) and reperfusion (3 hours), plasma creatine kinase; format: in vivo, mouse; conditions: pretreatment
Protocol: Skeletal muscle was made ischemic by applying a tourniquet to the hind-limbs of C57BL/6 mice for 90 minutes, then removing the tourniquet and allowing reperfusion for an additional 3 hours. Mice were treated with active peptide 1 (SEQ ID NO:17) or peptide 2 (SEQ ID NO:18) or peptide 3 (SEQ ID NO:19), or with the scrambled (control) peptide (SEQ ID NO:20). Peptide-1 (SEQ ID NO:17) is from the BH4 region of Bcl-2. Peptide-2 (SEQ ID NO:18) is from the first alpha helix of A1/Bfl-1. Peptide-3 (SEQ ID NO:19) is from the BH4 region of Bcl-XL. The amino acid sequences of peptide 1 (SEQ ID NO:17), peptide 2 (SEQ ID NO:18), peptide 3 (SEQ ID NO:19), and the scrambled (control) peptide (SEQ ID NO:20) are set forth in Table 1.
At the end of the 3 hours of reperfusion the mice were killed, and blood was taken for determination of plasma creatine kinase (CK) concentration. The CK concentration was used as an indicator of muscle injury. Elevated levels of CK indicate higher levels of muscle injury. […] The CK concentration for peptide 1 (SEQ ID NO:17) treated mice was 19,020+/−5481 IU/L (n=12) compared with control peptide (SEQ ID NO:20) where CK concentration was 60,530+/−5759 IU/L (n=12). The CK concentration for peptide 2 (SEQ ID NO:18) treated mice was 33,860+/−5997 IU/L (n=11) compared with control peptide (SEQ ID NO:20) where CK concentration was 69,430+/−11,170 IU/L (n=12). The CK concentration for peptide 3 (SEQ ID NO:19) treated mice was 49,500+/−3,901 IU/L (n=5) compared with control peptide (SEQ ID NO:20) where CK concentration was 80,880+/−11,430 IU/L (n=6).

[3] = test system: C57BL/6 mice subjected to hind limb ischemia and reperfusion; experiment: hind limb ischemia (aortic cross-clamp, 90 minutes) and reperfusion (3 hours), plasma creatine kinase; format: in vivo; conditions: 1 microgram/mouse intraperitoneally the day before, 12 mice per group
Protocol: Mouse skeletal muscle was made ischemic by cross-clamping the aorta distal to the renal artery for 90 minutes, then the clamp was removed and hind limb reperfusion continued for 3 hours. At the end of reperfusion (3 hours after clamp removal) the mice were killed, and the concentration of plasma creatine kinase (CK) was measured and used as an indicator of injury (creatine kinase concentration increases as a result of skeletal muscle injury).
Blood from EμT-Bcl-2 mice and their littermate control mice was drawn into heparin and plasma was extracted by centrifugation. One ml of plasma from EμT-Bcl-2 mice, or one ml of plasma from littermate control mice, was injected into the peritoneum of C57BL/6 mice the day before the mice were subjected to 90 minutes of ischemia and 3 hours of reperfusion as described in Example 1 herein. Blood was drawn from the mice and plasma CK concentration was determined at the end of reperfusion.
C57BL/6 mice were injected intraperitoneally with 1 μg per mouse of recombinant human Bcl-2 (rBcl-2) (SEQ ID NO:15) or 1 μg per mouse of recombinant human ubiquitin (rUbiquitin), or the vehicle solution for rBcl-2 the day before the mice were subjected to hind limb ischemia (90 minutes) and reperfusion (180 minutes) as described in Example 1. […]

[4] = test system: previously ischemic muscle of mice; experiment: tourniquet ischemia/reperfusion, skeletal muscle tissue viability by MTT; format: in vivo, mouse; conditions: measured the following day
From the text: The ability of a Bcl protein to inhibit cell death in a mammal, and/or to inhibit inflammation in a mammal concurrent with or after the onset of a condition expected to lead to cell death or inflammation, can be assessed, for example, in a mammal subjected to ischemia-reperfusion injury. As used herein, “determining,” “measuring,” and “assessing,” and “assaying” are used interchangeably and include both quantitative and qualitative determinations. For example, one or more of the following markers and/or assays can be used to assess the ability of a Bcl protein to inhibit cell death and/or inflammation in a mammal subjected to ischemia-reperfusion injury: 1. […] The viability of tissue subjected to I/R was measured using 3-(4,5-dimethylthiazol-2-yl)-2,5-diphenyl tetrazolium (MTT) (Ferrera et al., J Mol Cell Cardiol 25:1091, 1993). […]
Anesthetized mice were subjected to 90 minutes of tourniquet ischemia using a hemorrhoid ligator followed by reperfusion and were treated at various times by a subcutaneous injection of 1 microgram of either rhA1/Bfl-1 or rhBim, a pro-apoptotic Bcl-2 family member that lacks a BH4 or BH4-like domain (O'Connor et al., EMBO J. 17:384, 1998). The following day, mice were killed, the previously ischemic muscle removed, and tissue viability measured using 3-(4,5-dimethylthiazol-2-yl)-2,5-diphenyl tetrazolium (MTT). […]

[5] = experiment peptide 3 (n=5) versus control peptide (n=6)
[6] = experiment peptide 1 (n=12) versus control peptide (n=12)
[7] = experiment peptide 2 (n=11) versus control peptide (n=12)

In the case of CC(NC(=O)C(NC(=O)OCc1ccccc1)C(C)C)C(=O)NC(CC(=O)O)C(=O)CF (stereo not drawn) [z-VAD] (Cbz-Val-Ala-Asp-CH2F; configuration not given here), the “DNA strand-breaks after extended ischemia and reperfusion of skeletal muscle” value [1] is given as “prevents the strand-breaks” and the “plasma CK concentration after extended ischemia and reperfusion of skeletal muscle” value [1] is given as “reduces the plasma CK concentration”.

In the case of MSQSNRELVVDFLSYKLSQKGYSWSQF [peptide 3], the CK concentration [2, 5] is reported as 49,500+/−3,901 IU/L.

In the case of TGYDNREIVMKYIHYKLSQRGYEWD [peptide 1], the CK concentration [2, 6] is reported as 19,020+/−5481 IU/L.

For “TWHMYGNQRDYIGDRSKIVYKLEYE [control peptide, scrambled (control) peptide, reference compound]”, the CK concentration [2, 6] was 60,530+/−5759 IU/L, the CK concentration [2, 7] was 69,430+/−11,170 IU/L and the CK concentration [2, 5] was 80,880+/−11,430 IU/L.

In the case of “FGYIYRLAQDYLQCVLQIPZPGSGP (FGYIYRLAQDYLQCVLQIPXPGSGP; X not resolved here; also: Z at 20 undefined) [peptide 2, from the first alpha helix of A1/Bfl-1]”, the CK concentration [2, 7] is reported as 33,860+/−5997 IU/L.

B1: rhA1/Bfl-1: human A1 minus 25 amino acids at the carboxy terminal and addition of 6 histidine on the remaining protein (protein, listed as Homo sapiens)
chain: MTDCEFGYIYRLAQDYLQCVLQIPQPGSGPSKTSRVLQNVAFSVQKEVEKNLKSCLDNVNVVSVDTARTLFNQVMEKEFEDGIINWGRIVTIFAFEGILIKKLLRQQIAPDVDTYKEISYFVAEFIMNNTGEWIRQNGGWENGFVKKFEPKSHHHHHH
In the case of B1, the “plasma creatine kinase concentration compared to mice injected with rUbiquitin” value [3] is reported as “significantly (p<0.05) lower”, the “average plasma creatine kinase concentration” value ([3]; 90 min ischemia, 180 min reperfusion) is reported as 4,353+/−1284 IU/L and the “tissue viability normalized to tissue dry weight (MTT), compared to rhBim” value ([4]; 1 microgram subcutaneous 4 hours after the start of reperfusion, FIG. 11) is reported as “significantly greater tissue viability”. The “tissue viability normalized to tissue dry weight (MTT), compared to rhBim” value ([4]; 1 microgram subcutaneous at the time of reperfusion, FIG. 10) was “greater viability”.
